In the data set the test system is human SMAD7 mRNA. The data set is described as follows: Antisense inhibition of human SMAD7 mRNA expression in Hep3B cells by 5-10-5 MOE gapmers, single concentration, electroporation, RT-PCR (Example 1, Study 1 and 2). Format: cell-based. The essentials:
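Hep3B cells (20,000/well) electroporated with 5-10-5 MOE gapmer at 5,000 nM or 15,000 nM for approximately 24 h. SMAD7 mRNA quantified by real-time PCR with primer probe set RTS5062 and normalized to RIBOGREEN total RNA. Values are percent inhibition relative to untreated controls.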

Setting [1] is: electroporation, 15,000 nM, approximately 24 hours, relative to untreated control cells, gapmers targeting SEQ ID NO: 1 and 2.
Setting [2] is: Study 2, electroporation with 15,000 nM antisense oligonucleotide, 5-10-5 MOE gapmers targeting SEQ ID NO: 1 and 2.
Setting [3] is: electroporation, 5,000 nM, approximately 24 hours, relative to untreated control cells, gapmers targeting SEQ ID NO: 1 and 2.
Setting [4] is: electroporation with 15,000 nM antisense oligonucleotide (Study 2), 5-10-5 MOE gapmers targeting SEQ ID NO: 1 and 2.
Where [5] appears, read: electroporation, 15,000 nM antisense oligonucleotide (Study 2), 5-10-5 MOE gapmers targeting SEQ ID NO: 1 and 2.

Strand notation (5' to 3'): a small letter for the sugar, then the base; units joined by * are phosphorothioate-linked, units joined directly phosphodiester-linked; [ ] holds rarer units or linkages, { } end groups; capitals alone tell only the bases. e = 2'-O-(2-methoxyethyl) (MOE); [5mC] = 5-methylcytosine; d = 2'-deoxy (DNA)

Here are results for 29 substances from US10517889B2, “Modulators of SMAD7 expression” (Ionis Pharmaceuticals, Inc., priority 2017, dated 2019).

As to “771837 (antisense eA*eG*eT*eG*eT*dT*dG*dA*dG*dG*dA*d[5mC]*dT*d[5mC]*d[5mC]*e[5mC]*e[5mC]*eA*eG*e[5mC]) [compound 771837]”, the “% inhibition of SMAD7 mRNA expression” value under setting [1] stood at 48%.
“771436 (eG*eA*eG*e[5mC]*eA*dG*d[5mC]*dA*dG*d[5mC]*dT*d[5mC]*d[5mC]*dA*dG*e[5mC]*eT*eG*e[5mC]*e[5mC]; antisense) [compound 771436]”: the “% Inhibition” value under setting [2] is listed as 27%. The “% inhibition of SMAD7 mRNA expression” value under setting [3] was 50%.
“771656 (antisense eG*eT*eT*eA*eA*dA*dG*dT*d[5mC]*dT*dA*dA*dA*d[5mC]*dA*eT*eG*e[5mC]*eT*e[5mC]) [compound 771656]”: under setting [4], the “% Inhibition of SMAD7 mRNA” value was 35% and the “% inhibition of SMAD7 mRNA expression” value was determined as 0%.
For the substance “771481 (antisense eG*e[5mC]*eA*eG*eG*d[5mC]*dT*dG*dT*dA*d[5mC]*dG*d[5mC]*d[5mC]*dT*eT*e[5mC]*eT*e[5mC]*eG) [compound 771481]”, under setting [4], the “% Inhibition of SMAD7 mRNA” value is on record as 26%. For the same substance, under setting [5], the “% inhibition of SMAD7 mRNA expression” value stood at 0%.
As to “771412 (eT*e[5mC]*eG*e[5mC]*e[5mC]*d[5mC]*d[5mC]*dT*dT*d[5mC]*dT*d[5mC]*d[5mC]*d[5mC]*d[5mC]*eG*e[5mC]*eA*eG*e[5mC]; antisense) [compound 771412]”, the “% Inhibition” value under setting [2] came out at 38%. Besides, the “% inhibition of SMAD7 mRNA expression” value under setting [3] came out at 52%.
For the substance “771623 (antisense eT*eA*eA*e[5mC]*eA*d[5mC]*dA*d[5mC]*dA*dG*dG*dA*dT*dG*dG*eG*eA*eG*e[5mC]*eA) [compound 771623]”, the “% inhibition of SMAD7 mRNA expression” value under setting [2] is 51%.
On to “771537 (antisense e[5mC]*eA*eA*eA*eG*dA*dG*d[5mC]*dG*dA*dA*dA*d[5mC]*dA*dA*eA*eA*e[5mC]*eA*eG) [compound 771537]”, for which the “% inhibition of SMAD7 mRNA expression” value under setting [5] is listed as 16%.
As to “771716 (antisense eT*e[5mC]*eG*eA*eA*dT*d[5mC]*dA*d[5mC]*d[5mC]*d[5mC]*dT*dT*dT*d[5mC]*e[5mC]*eA*eT*eT*eA) [compound 771716]”, under setting [2], the “% Inhibition” value amounted to 24%.
As to “771872 (antisense eT*e[5mC]*e[5mC]*e[5mC]*e[5mC]*d[5mC]*dA*d[5mC]*d[5mC]*dG*d[5mC]*dG*d[5mC]*dA*dG*eG*eG*eA*e[5mC]*eA) [compound 771872]”, the “% Inhibition of SMAD7 mRNA” value under setting [4] turned out to be 11%. Besides, the “% inhibition of SMAD7 mRNA expression” value under setting [5] was found to be 0%.
For “771398 (antisense eG*eG*e[5mC]*eA*eG*dG*dA*dG*d[5mC]*dG*dG*d[5mC]*dG*dG*d[5mC]*eG*eG*e[5mC]*e[5mC]*e[5mC]) [compound 771398]”, the “% Inhibition” value under setting [2] was determined as 48%. The “% inhibition of SMAD7 mRNA expression” value under setting [3] is 53%.
For the substance “771709 (antisense eT*eG*eA*eA*e[5mC]*d[5mC]*d[5mC]*dT*d[5mC]*dA*d[5mC]*dA*dT*d[5mC]*dA*e[5mC]*eA*e[5mC]*eT*e[5mC]) [compound 771709]”, the “% inhibition of SMAD7 mRNA expression” value under setting [1] is given as 38%.
Turning to “771927 (antisense eG*e[5mC]*e[5mC]*e[5mC]*eA*d[5mC]*dA*dG*d[5mC]*d[5mC]*d[5mC]*dA*d[5mC]*dA*d[5mC]*eG*eA*eG*eT*e[5mC]) [compound 771927]”, the “% Inhibition” value under setting [2] is recorded as 0%.
The same measure, in the same setting: with “771758 (antisense eA*eT*eT*eA*e[5mC]*d[5mC]*dA*dG*dT*d[5mC]*d[5mC]*d[5mC]*d[5mC]*d[5mC]*dA*eT*eT*eA*e[5mC]*eG) [compound 771758]” the figure was 0%.
As for “771495 (antisense e[5mC]*eT*eA*eG*e[5mC]*d[5mC]*dA*dG*d[5mC]*dA*d[5mC]*dG*dG*dG*d[5mC]*eA*eG*e[5mC]*eT*eG) [compound 771495]”, the “% inhibition of SMAD7 mRNA expression” value under setting [2] was determined as 18%.
“771953 (antisense eT*e[5mC]*eA*e[5mC]*e[5mC]*dA*dG*d[5mC]*dT*d[5mC]*dA*dT*d[5mC]*dT*d[5mC]*eT*e[5mC]*eA*eG*eG) [compound 771953]”: the “% inhibition of SMAD7 mRNA expression” value under setting [5] was 42%.
Still for that read-out and setting: the value for “771938 (antisense e[5mC]*e[5mC]*eT*eT*e[5mC]*d[5mC]*d[5mC]*dA*dA*dA*dT*dG*d[5mC]*d[5mC]*dT*eG*e[5mC]*e[5mC]*e[5mC]*e[5mC]) [compound 771938]” was 29%.
“771657 (antisense e[5mC]*eT*eT*eA*eT*dG*dT*dT*dA*dA*dA*dG*dT*d[5mC]*dT*eA*eA*eA*e[5mC]*eA) [compound 771657]”: the “% inhibition of SMAD7 mRNA expression” value under setting [4] stood at 6%.
“771622 (antisense eA*eA*e[5mC]*eA*e[5mC]*dA*d[5mC]*dA*dG*dG*dA*dT*dG*dG*dG*eA*eG*e[5mC]*eA*eG) [compound 771622]”: under setting [2], the “% inhibition of SMAD7 mRNA expression” value is recorded as 34%.
Same read-out and setting: the value for “771543 (antisense e[5mC]*e[5mC]*e[5mC]*e[5mC]*eA*dA*d[5mC]*dA*dA*dT*dT*d[5mC]*dT*dT*dT*eT*e[5mC]*eA*eT*eA) [compound 771543]” was 36%.
In the case of “771427 (e[5mC]*e[5mC]*eT*e[5mC]*eG*d[5mC]*dA*d[5mC]*d[5mC]*dG*d[5mC]*d[5mC]*dT*dT*dG*e[5mC]*e[5mC]*e[5mC]*eA*eG; antisense) [compound 771427]”, under setting [5], the “% inhibition of SMAD7 mRNA expression” value was found to be 36%.
As for “771826 (antisense e[5mC]*eA*e[5mC]*e[5mC]*eA*dT*d[5mC]*d[5mC]*dT*dG*dG*dT*dT*d[5mC]*dG*e[5mC]*eA*eG*eT*e[5mC]) [compound 771826]”, the “% inhibition of SMAD7 mRNA expression” value under setting [5] is 31%.
“771757 (antisense eT*e[5mC]*e[5mC]*e[5mC]*e[5mC]*dT*dT*dT*dT*dT*dT*dA*dA*dT*dT*eG*eA*eG*eG*eA) [compound 771757]”: the “% inhibition of SMAD7 mRNA expression” value under setting [1] stood at 48%.
In the case of “771692 (antisense e[5mC]*e[5mC]*e[5mC]*eA*eG*dG*dA*dG*dG*dG*dT*dA*dT*dG*d[5mC]*eA*e[5mC]*eA*e[5mC]*eT) [compound 771692]”, the “% Inhibition” value under setting [2] was 18%.
Turning to “771592 (antisense e[5mC]*eT*eG*e[5mC]*eT*d[5mC]*dA*dG*dA*dA*dG*d[5mC]*d[5mC]*dT*dG*eT*eG*eG*eA*e[5mC]) [compound 771592]”, the “% Inhibition of SMAD7 mRNA” value under setting [4] is 16%. Further, the “% inhibition of SMAD7 mRNA expression” value under setting [5] stood at 0%.
Regarding “771389 (antisense e[5mC]*eA*e[5mC]*e[5mC]*e[5mC]*d[5mC]*dG*d[5mC]*dG*d[5mC]*dG*dG*d[5mC]*d[5mC]*d[5mC]*eG*e[5mC]*eG*e[5mC]*e[5mC]) [compound 771389]”, under setting [5], the “% inhibition of SMAD7 mRNA expression” value worked out at 18%.
Still for that read-out and setting: with “771897 (antisense e[5mC]*eT*e[5mC]*eT*e[5mC]*dA*dG*dG*dG*dT*d[5mC]*dT*d[5mC]*dA*dG*eT*eT*eT*eG*eA) [compound 771897]” the figure was 44%.
Take “771384 (antisense eT*eG*e[5mC]*eT*eG*dT*dG*dG*dA*dT*dT*dT*dG*dA*dA*eA*eA*eG*eG*eG) [compound 771384]”: under setting [1], the “% inhibition of SMAD7 mRNA expression” value was 18%.
Take “771466 (antisense eA*eA*eG*eA*eT*dA*dT*d[5mC]*d[5mC]*dA*dG*dA*dG*dA*dG*eG*eG*e[5mC]*eT*e[5mC]) [compound 771466]”: under setting [5], the “% inhibition of SMAD7 mRNA expression” value turned out to be 38%.
Consider “771462 (antisense e[5mC]*eT*eG*eG*eA*d[5mC]*dA*d[5mC]*dA*dG*dT*dA*dG*dA*dG*e[5mC]*e[5mC]*eT*e[5mC]*e[5mC]) [compound 771462]”, for which the “% inhibition of SMAD7 mRNA expression” value under setting [1] amounted to 31%.
